The values that follow are results of earlier work, collected in patent US20130089529A1, “AGENT FOR OSTEOGENESIS USING SUBSTANCE-P AND PREPARATION PROCESS THEREOF” (UNIVERSITY-INDUSTRY COOPERATION GROUP OF KYUNGHEE UNIVERSITY, priority 2010, published 2013).

The subject of one data set is CD29+ MSCs. To be noted: mice without wound, intravenous injection of Substance-P, versus non-injected mice; previous study KR 10-2006-0037176.
The subject of another data set is MSCs. The following applies: in vitro 3-D collagen gel; by inducing matrix-degrading enzymes and inhibiting their inhibitors; previous study KR 10-2006-0037176.

In the case of Substance-P, the “CD29+ MSCs mobilized into peripheral blood, relative to non-injected mice” value with CD29+ MSCs is “approximately 15 times”. Moreover, in the data set with MSCs, the “Migration of MSCs in 3-D collagen gel” value is listed as “stimulated migration of MSCs”.
